“And” between values parts separate entries of the source, which are not always exact repeats. Equal values may be shown once. Read-outs that look alike come from different tables or passages of the source.
Tests used:
[1] = target: T1, HIV-1 RT-associated RNase H activity, M230A RT (Human immunodeficiency virus type 1 group M subtype B, UniProt P04585, M817A); test: RNase H activity assay, M230A RT; format: biochemical, HIV-1 group M subtype B
T1 construct: The 1:1 ration between the p66/p51 subunits was also verified; made in house; host or cells: E. coli M15
Procedure: (§1) HIV RT-associated RNase H activity was measured as described in 100 μL reaction volume containing 50 mM Tris-HCl buffer pH 7.8, 6 mM MgCl2, 1 mM dithiothreitol (DTT), 80 mM KCl, 0.25 μM hybrid RNA/DNA 5'-GAUCUGAGCCUGGGAGCU-Fluorescin-3' (HPLC, dry, QC: Mass Check) (available from Metabion) 5'-Dabcyl-AGCTCCCAGGCTCAGATC-3'(HPLC, dry, QC: Mass Check), increasing concentrations of inhibitors, whose dilution were made in water, and different amount of enzymes according to a linear range of dose-response curve: 20 ng of WT RT; 60 ng K103N RT; 37.5 ng V106A RT; 75 ng V108A RT; 5 ng Y181C RT; 50 ng Y188A RT; 30 ng Y188L RT; 100 ng E224A RT; 37.5 ng P225A RT; 20 ng P226A RT; 18 ng F227A RT; 30 ng L228A RT; 30 ng W229A RT; 10 ng M230A RT; 30 ng G231A RT; 62.5 ng N474A RT; 1 μg Y501A RT; 100 ng A502F RT; 37.5 ng A508V RT; 38 ng HIV-1 group O RT. The reaction mixture was incubated for 1 h at 37°C, stopped by addition of EDTA and products were measured with a multilabel counter plate reader Victor 3 (Perkin Elmer model 1420–051) equipped with filters for 490/528 nm (excitation/emission wavelength)

[2] = system: HIV-1 RT-associated RNase H activity, M230A RT; test: RNase H activity assay, M230A RT; format: biochemical, HIV-1 group M subtype B; settings: M230A RT
Procedure: as §1

[3] = target: T2, HIV-1 RT-associated RNase H activity, P225A RT (Human immunodeficiency virus type 1 group M subtype B, UniProt P04585, P812A); test: RNase H activity assay, P225A RT; format: biochemical, HIV-1 group M subtype B; settings: for Fold of increase of RNase H IC50 with respect to wt RT: P225A RT
T2 construct: The 1:1 ration between the p66/p51 subunits was also verified; made in house; host or cells: E. coli M15
Procedure: as §1

[4] = target: T3, HIV-1 RT-associated RNase H activity, P226A RT (Human immunodeficiency virus type 1 group M subtype B, UniProt P04585, P813A); test: RNase H activity assay, P226A RT; format: biochemical, HIV-1 group M subtype B
T3 construct: The 1:1 ration between the p66/p51 subunits was also verified; made in house; host or cells: E. coli M15
Procedure: as §1

[5] = system: HIV-1 RT-associated RNase H activity, P226A RT; test: RNase H activity assay, P226A RT; format: biochemical, HIV-1 group M subtype B; settings: P226A RT
Procedure: as §1

[6] = target: T4, HIV-1 RT-associated RNase H activity, Y181C RT (Human immunodeficiency virus type 1 group M subtype B, UniProt P04585, Y768C); test: RNase H activity assay, Y181C RT; format: biochemical, HIV-1 group M subtype B
T4 construct: The 1:1 ration between the p66/p51 subunits was also verified; made in house; host or cells: E. coli M15
Procedure: as §1

[7] = target: HIV-1 RT-associated RNase H activity, HIV-1 group O RT (Human immunodeficiency virus type 1 group O, UniProt Q79666); test: RNase H activity assay, HIV-1 group O RT; format: biochemical; settings: for IC50: Group O RT; for Fold increase in RNase H IC50 in comparison with wild-type HIV-1 group M subtype B RT: HIV-1 group O RT
Excerpt: Recombinant HIV-1 group O RT was expressed and purified as previously described. It was obtained as a heterodimer composed of subunits of 66 and 51 kDa, with a polyhistidine tag at the C-terminus of p66. For this purpose, the RT p66 subunit encoded within a p66RTB expression vector was co-expressed with the HIV-1 protease in E. coli XL-1 Blue, and the obtained heterodimers were then purified by ionic exchange followed by chromatography on Ni2+-nitriloacetic acid agarose. The enzyme was quantified by active site titration before biochemical studies.
as §1, with “5'-[…]-Fluorescin-3'” for “5'-GAUCUGAGCCUGGGAGCU-Fluorescin-3'”, “5'-Dabcyl-[…]-3'(HPLC,” for “5'-Dabcyl-AGCTCCCAGGCTCAGATC-3'(HPLC,”

[8] = target: T5, HIV-1 RT-associated RNase H activity, Y188A RT (Human immunodeficiency virus type 1 group M subtype B, UniProt P04585, Y775A); test: RNase H activity assay, Y188A RT; format: biochemical, HIV-1 group M subtype B; settings: for Fold of increase of RNase H IC50 with respect to wt RT: Y188A RT
T5 construct: The 1:1 ration between the p66/p51 subunits was also verified; made in house; host or cells: E. coli M15
Procedure: as §1

[9] = target: T6, HIV-1 RT-associated RNase H activity, N474A RT (Human immunodeficiency virus type 1 group M subtype B, UniProt P04585, N1061A); test: biochemical; format: biochemical, HIV-1 group M subtype B
T6 construct: The 1:1 ration between the p66/p51 subunits was also verified; made in house; host or cells: E. coli M15
Procedure: as §1, with “5'-[…]-Fluorescin-3'” for “5'-GAUCUGAGCCUGGGAGCU-Fluorescin-3'”, “5'-Dabcyl-[…]-3'(HPLC,” for “5'-Dabcyl-AGCTCCCAGGCTCAGATC-3'(HPLC,”

[10] = target: T7, HIV-1 RT-associated RNase H activity, Y501A RT (Human immunodeficiency virus type 1 group M subtype B, UniProt P04585, Y1088A); test: biochemical; format: biochemical, HIV-1 group M subtype B
T7 construct: The 1:1 ration between the p66/p51 subunits was also verified; made in house; host or cells: E. coli M15
Procedure: as §1, with “5'-[…]-Fluorescin-3'” for “5'-GAUCUGAGCCUGGGAGCU-Fluorescin-3'”, “5'-Dabcyl-[…]-3'(HPLC,” for “5'-Dabcyl-AGCTCCCAGGCTCAGATC-3'(HPLC,”

[11] = system: HIV-1 RT-associated RNase H activity, F227A RT; test: RNase H activity assay, F227A RT; format: biochemical, HIV-1 group M subtype B; settings: F227A RT
Procedure: as §1

[12] = target: T8, HIV-1 RT-associated RNase H activity, F227A RT (Human immunodeficiency virus type 1 group M subtype B, UniProt P04585, F814A); test: RNase H activity assay, F227A RT; format: biochemical, HIV-1 group M subtype B
T8 construct: The 1:1 ration between the p66/p51 subunits was also verified; made in house; host or cells: E. coli M15
Procedure: as §1

[13] = system: HIV-1 RT-associated RDDP activity, L228A RT; test: biochemical; set-up: species or system HIV-1 group M subtype B; settings: L228A RT

Row | SMILES | IC50 [1] | Fold of increase of RNase H IC50 with respect to wt RT [2] | IC50 [3] | Fold of increase of RNase H IC50 with respect to wt RT [3] | IC50 [4] | Fold of increase of RNase H IC50 with respect to wt RT [5] | IC50 [7] | Fold increase in RNase H IC50 in comparison with wild-type HIV-1 group M subtype B RT [7] | IC50 [8] | Fold of increase of RNase H IC50 with respect to wt RT [8] | IC50 [9] | Fold of increase of RNase H IC50 with respect to wt RT ([9]; N474A RT) | IC50 [10] | Fold of increase of RNase H IC50 with respect to wt RT ([10]; Y501A RT) | Fold of increase of RNase H IC50 with respect to wt RT [11] | IC50 [12] | further results
1 | CC(C)c1ccc(O)c(=O)c(O)c1 [BTP, β-thujaplicinol, reference compound] | 0.14 ± 0.04 µM | 0.7 | 0.13 ± 0.06 µM | 0.7 | 0.29 ± 0.08 µM | 1.5 | 0.91 ± 0.01 µM | 5 to 6.5 | 0.19 ± 0.08 µM | 1.0 | 0.92 ± 0.01 µM | 4.8 | 0.07 ± 0.002 µM | 0.4 | 1.2 | 0.22 ± 0.04 µM | IC50 ([6]; Y181C RT, read-out: IC50 RNase H): 0.23 ± 0.05 µM
2 | N#Cc1ccc(-c2csc(NN=C3C(=O)Nc4ccccc43)n2)cc1 [RMNC6, (Z)-4-(2-(2-(2-oxoindolin-3-ylidene)hydrazinyl)thiazol-4-yl)benzonitrile] | 0.5 ± 0.1 µM | 0.4 | 1.7 ± 0.2 µM | 1.3 | 1.9 ± 0.1 µM | 1.5 | 8.5 ± 2.6 µM | 6.5 and 5 to 6.5 | 3.3 ± 1.5 µM | 2.5 | > 100 µM | > 77 | > 100 µM | > 77 | 0.5 | 0.7 ± 0.1 µM | Fold of increase of RDDP IC50 with respect to wt RT [13]: 1.3; IC50 [6]: 2.1 ± 0.6 µM; Resistance of RNase H function ([9]; N474A RT): full resistance; Resistance of RNase H function ([10]; Y501A RT): full resistance
